Measurements from ChEMBL document CHEMBL1141234, “Synthesis and SAR of highly potent dual 5-HT1A and 5-HT1B antagonists as potential antidepressant drugs” (Bioorg Med Chem Lett, 2005).

Experiments:
[1] = target: T1, 5-hydroxytryptamine receptor 1A (Homo sapiens, UniProt P08908); test: Displacement of [35S]GTP-gamma-S from human recombinant 5HT1A receptor; format: functional
T1 sequence (P08908 whole entry): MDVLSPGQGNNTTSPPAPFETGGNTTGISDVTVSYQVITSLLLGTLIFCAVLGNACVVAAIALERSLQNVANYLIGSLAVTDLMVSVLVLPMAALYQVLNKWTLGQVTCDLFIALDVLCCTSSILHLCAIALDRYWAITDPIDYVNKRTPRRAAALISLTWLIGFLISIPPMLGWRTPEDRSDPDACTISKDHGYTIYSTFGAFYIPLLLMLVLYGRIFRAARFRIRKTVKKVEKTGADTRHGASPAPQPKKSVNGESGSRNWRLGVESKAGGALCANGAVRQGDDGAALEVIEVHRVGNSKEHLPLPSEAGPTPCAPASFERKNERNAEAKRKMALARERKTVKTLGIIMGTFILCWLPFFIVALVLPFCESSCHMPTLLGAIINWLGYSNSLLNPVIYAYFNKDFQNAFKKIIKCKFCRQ

[2] = target: T2, 5-hydroxytryptamine receptor 1B (Homo sapiens, UniProt P28222); test: Inhibitory activity against human recombinant 5HT1B receptor co-expressed with G-protein chimera Gqo5 in HEK293 cells by FLIPR; format: functional, cell-based
[3] = target: T3, Adrenergic receptor alpha-1 (Homo sapiens, UniProt P35348+P25100+P35368); test: Inhibitory activity against Adrenergic alpha-1 receptor; format: protein assay
T3 sequence (P35348 whole entry): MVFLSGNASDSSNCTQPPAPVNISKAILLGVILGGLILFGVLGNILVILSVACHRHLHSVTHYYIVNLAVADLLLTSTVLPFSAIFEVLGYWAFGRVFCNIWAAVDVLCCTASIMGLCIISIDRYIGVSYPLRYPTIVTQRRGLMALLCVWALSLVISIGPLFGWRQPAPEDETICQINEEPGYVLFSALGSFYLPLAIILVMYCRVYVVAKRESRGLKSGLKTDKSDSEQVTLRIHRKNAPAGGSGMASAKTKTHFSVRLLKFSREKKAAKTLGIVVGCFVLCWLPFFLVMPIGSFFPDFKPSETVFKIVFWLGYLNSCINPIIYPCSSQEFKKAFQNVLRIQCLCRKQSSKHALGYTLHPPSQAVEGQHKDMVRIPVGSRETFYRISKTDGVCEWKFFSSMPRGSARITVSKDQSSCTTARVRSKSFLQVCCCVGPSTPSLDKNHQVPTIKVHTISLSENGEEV
T3 sequence (P25100 whole entry): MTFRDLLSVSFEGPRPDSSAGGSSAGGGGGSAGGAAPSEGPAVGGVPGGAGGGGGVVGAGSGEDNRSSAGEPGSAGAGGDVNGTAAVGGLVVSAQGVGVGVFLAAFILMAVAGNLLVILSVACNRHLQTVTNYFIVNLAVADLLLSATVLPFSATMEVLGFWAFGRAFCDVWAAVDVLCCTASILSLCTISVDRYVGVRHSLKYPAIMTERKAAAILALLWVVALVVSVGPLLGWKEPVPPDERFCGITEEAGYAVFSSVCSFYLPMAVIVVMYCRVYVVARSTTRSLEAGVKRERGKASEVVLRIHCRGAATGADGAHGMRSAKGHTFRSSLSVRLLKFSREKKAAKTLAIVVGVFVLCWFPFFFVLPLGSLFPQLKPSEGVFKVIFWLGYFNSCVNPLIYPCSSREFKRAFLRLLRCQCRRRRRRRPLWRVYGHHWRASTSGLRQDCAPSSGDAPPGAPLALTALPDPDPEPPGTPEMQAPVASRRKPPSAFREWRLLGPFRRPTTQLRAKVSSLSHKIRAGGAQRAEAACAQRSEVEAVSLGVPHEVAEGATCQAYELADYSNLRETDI
T3 sequence (P35368 whole entry): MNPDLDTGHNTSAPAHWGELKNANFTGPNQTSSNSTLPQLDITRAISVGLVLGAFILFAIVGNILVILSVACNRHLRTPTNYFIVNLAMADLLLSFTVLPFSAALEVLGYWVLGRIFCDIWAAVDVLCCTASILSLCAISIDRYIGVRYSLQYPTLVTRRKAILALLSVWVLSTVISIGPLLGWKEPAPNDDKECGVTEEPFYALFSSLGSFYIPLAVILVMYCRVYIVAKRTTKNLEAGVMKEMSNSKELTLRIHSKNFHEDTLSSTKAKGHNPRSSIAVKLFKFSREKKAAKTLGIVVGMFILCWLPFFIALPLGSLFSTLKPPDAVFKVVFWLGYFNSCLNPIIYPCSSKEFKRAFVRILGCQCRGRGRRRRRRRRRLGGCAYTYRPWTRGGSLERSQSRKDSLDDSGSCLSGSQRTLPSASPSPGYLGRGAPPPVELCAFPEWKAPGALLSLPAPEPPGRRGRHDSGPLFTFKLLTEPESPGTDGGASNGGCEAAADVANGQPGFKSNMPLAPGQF

[4] = target: T2, 5-hydroxytryptamine receptor 1B; test: Intrinsic activity for 5HT1B receptor in FLIPR assay; format: functional
[5] = target: T4, 5-hydroxytryptamine receptor 1A (Homo sapiens) (UniProt P08908); test: Intrinsic activity for 5HT1A receptor in [35S]GTP-gamma-S assay; format: functional
T4 sequence (whole entry): T1 sequence (P08908 whole entry)

[6] = target: T4, 5-hydroxytryptamine receptor 1A (Homo sapiens); test: Functional activity in [35S]GTP-gamma-S assay for 5HT1A receptor
[7] = target: T2, 5-hydroxytryptamine receptor 1B; test: Functional activity in FLIPR assay for 5HT1B receptor

T2 sequence (P28222 whole entry): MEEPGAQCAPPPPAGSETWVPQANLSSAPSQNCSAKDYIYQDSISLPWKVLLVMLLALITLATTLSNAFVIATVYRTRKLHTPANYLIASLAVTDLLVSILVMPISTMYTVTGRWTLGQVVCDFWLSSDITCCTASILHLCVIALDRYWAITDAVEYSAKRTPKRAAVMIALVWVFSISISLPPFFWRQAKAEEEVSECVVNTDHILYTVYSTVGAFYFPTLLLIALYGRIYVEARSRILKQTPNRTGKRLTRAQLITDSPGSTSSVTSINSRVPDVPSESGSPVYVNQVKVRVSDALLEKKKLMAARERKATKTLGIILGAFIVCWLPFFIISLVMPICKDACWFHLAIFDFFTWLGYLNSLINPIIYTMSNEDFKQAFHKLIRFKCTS

Compound | Ki [1] [nM] | Ki [2] [nM] | Ki [3] [nM] | Emax [4] [%] | Emax [5] [%] | Activity ([6]; filed as antagonist) | Activity ([7]; filed as antagonist) | Activity ([6]; filed as partial agonist) | Activity ([7]; filed as partial agonist) | Activity ([7]; filed as agonist)
COc1ccc(OC)c(N2CCN(CCn3cnc4sc5c(c4c3=O)CCN(C)C5)CC2)c1 | 24.2 | 50.2 | 8.4 | < 20 | < 10 | Antagonist | Antagonist |  |  | 
CN1CCc2c(sc3ncn(CCN4CCN(c5ccccc5OCc5ccccc5)CC4)c(=O)c23)C1 | 1.9 | 1.2 | 4 | 20 | 10 |  |  | Partial agonist | Partial agonist | 
CC(C)Oc1ccccc1N1CCN(CCn2cnc3sc4c(c3c2=O)CCN(C)C4)CC1 | 0.7 | 2.5 | 0.1 | < 20 | 10 |  | Antagonist | Partial agonist |  | 
CN1CCc2c(sc3ncn(CCN4CCN(c5cccc6ccsc56)CC4)c(=O)c23)C1 | 0.4 | 0.4 | 0.5 | < 20 | 10 |  | Antagonist | Partial agonist |  | 
COc1ccc(C(F)(F)F)cc1N1CCN(CCn2cnc3sc4c(c3c2=O)CCN(C)C4)CC1 | 104 | 42.3 | 18 |  |  |  |  |  |  | 
COc1ccc(-c2ccccc2)cc1N1CCN(CCn2cnc3sc4c(c3c2=O)CCN(C)C4)CC1 | 429 | 116 | 0.1 |  |  |  |  |  |  | 
CN1CCc2c(sc3ncn(CCN4CCN(c5cccc6c5OCC6)CC4)c(=O)c23)C1 | 0.6 | 0.5 | 0.2 | < 20 | 10 |  | Antagonist | Partial agonist |  | 
CN1CCc2c(sc3ncn(CCN4CCN(c5ccccc5Oc5ccccc5)CC4)c(=O)c23)C1 | 0.9 | 1.1 | 0.5 | 20 | 10 |  |  | Partial agonist | Partial agonist | 
CN1CCc2c(sc3ncn(CCN4CCN(c5ccccc5OCC(C)(C)C)CC4)c(=O)c23)C1 | 2.5 | 5.4 | 0.2 | < 20 | 10 |  | Antagonist | Partial agonist |  | 
CN1CCc2c(sc3ncn(CCN4CCN(c5cccc6ncccc56)CC4)c(=O)c23)C1 | 1.5 | 1.7 | 26.7 | 20 | < 10 | Antagonist |  |  | Partial agonist | 
CN1CCc2c(sc3ncn(CCN4CCN(c5ncnc6ccccc56)CC4)c(=O)c23)C1 | 93.4 | 320 | 6780 | > 80 | < 10 | Antagonist |  |  |  | Agonist
CN1CCc2c(sc3ncn(CCN4CCN(c5cccc6ccncc56)CC4)c(=O)c23)C1 | 0.3 | 0.1 | 1.2 | 20 | 10 |  |  | Partial agonist | Partial agonist | 
COc1ccccc1N1CCN(CCn2cnc3sc4c(c3c2=O)CCN(C)C4)CC1 | 0.7 | 1.4 | 0.4 | 20 | < 10 | Antagonist |  |  | Partial agonist | 
CN1CCc2c(sc3ncn(CCN4CCN(c5ccccc5Cl)CC4)c(=O)c23)C1 | 2.8 | 1.7 | 1 | 20 | 10 |  |  | Partial agonist | Partial agonist | 
COc1ccc(C)cc1N1CCN(CCn2cnc3sc4c(c3c2=O)CCN(C)C4)CC1 | 5.6 | 11.9 | 12.1 | < 20 | 10 |  | Antagonist | Partial agonist |  | 
CN1CCc2c(sc3ncn(CCN4CCN(c5ccccc5C#N)CC4)c(=O)c23)C1 | 2.5 | 1.4 | 1.8 | > 80 | 10 |  |  | Partial agonist |  | Agonist
CN1CCc2c(sc3ncn(CCN4CCN(c5cccc6cnccc56)CC4)c(=O)c23)C1 | 0.9 | 0.9 | 129.1 | 20 | 10 |  |  | Partial agonist | Partial agonist | 
CN1CCc2c(sc3ncn(CCN4CCN(c5ccccc5-c5ccccc5)CC4)c(=O)c23)C1 | 4.1 | 1.1 | 1.1 | < 20 | 10 |  | Antagonist | Partial agonist |  | 
CN1CCc2c(sc3ncn(CCN4CCN(c5cccc6ccccc56)CC4)c(=O)c23)C1 | 0.7 | 0.5 | 13.2 | 20 | 10 |  |  | Partial agonist | Partial agonist | 
